The subject of test [1] is Enterococcus faecalis. Briefly: Antibacterial activity against Enterococcus faecalis ATCC 29212 assessed as growth inhibition by CLSI broth microdilution method. The test is classed as functional.
The subject of test [2] is Staphylococcus aureus. In words: Antibacterial activity against Staphylococcus aureus NRRL B-767 assessed as growth inhibition by CLSI broth microdilution method. It counts as functional. Background: In broth dilution the organism is exposed to a series of concentrations in liquid medium.
In test [3] the test system is Escherichia coli. Briefly: Antibacterial activity against Escherichia coli ATCC 25922 assessed as growth inhibition by CLSI broth microdilution method. The test is classed as functional.
For test [4], the system named is Candida albicans. In words: Antifungal activity against Candida albicans assessed as growth inhibition by CLSI broth microdilution method. The test is classed as functional.
In test [5] the test system is Pseudomonas aeruginosa. Briefly: Antibacterial activity against Pseudomonas aeruginosa ATCC 254992 assessed as growth inhibition by CLSI broth microdilution method. The test is classed as functional.
Test [6] has as its system C6. Briefly: Cytotoxicity against Rattus norvegicus (rat) C6 cells assessed as cell viability after 24 hr by MTT assay. The test is classed as functional, cell-based. The settings on record: C6, 24 h.
For test [7], the system named is HT-29. Briefly: Cytotoxicity against Homo sapiens (human) HT-29 cells assessed as cell viability after 24 hr by MTT assay. The test is classed as functional, cell-based. The settings on record: HT-29, 24 h. A general note: Tetrazolium assays rely on reduction of a dye to a coloured formazan, in cell work by metabolically active cells.
In test [8] the test system is C6. In words: Inhibition of nuclear DNA synthesis in Rattus norvegicus (rat) C6 cells assessed as decrease in incorporation of bromo deoxyuridine during S phase of cell cycle after 24 to 48 hr by colorimetric method. It counts as cell-based.
Test [9] deals with HT-29. Briefly: Inhibition of nuclear DNA synthesis in Homo sapiens (human) HT-29 cells assessed as decrease in incorporation of bromo deoxyuridine during S phase of cell cycle after 24 to 48 hr by colorimetric method. The test is classed as cell-based.
The test system of test [10] is HT-29. Briefly: Inhibition of nuclear DNA synthesis in Homo sapiens (human) HT-29 cells assessed as decrease in incorporation of bromo deoxyuridine during S phase of cell cycle at 0.8 to 3.2 uM by colorimetric method. It counts as cell-based. The settings on record: TDE = time-dependent effect.
For test [11], the system named is C6. Briefly: Inhibition of nuclear DNA synthesis in Rattus norvegicus (rat) C6 cells assessed as decrease in incorporation of bromo deoxyuridine during S phase of cell cycle at 0.8 to 3.2 uM by colorimetric method. The test is classed as cell-based. Particulars: TDE = time-dependent effect.
The subject of test [12] is C6. In words: Inhibition of nuclear DNA synthesis in Rattus norvegicus (rat) C6 cells assessed as decrease in incorporation of bromo deoxyuridine during S phase of cell cycle at 3.2 uM after 48 hr by colorimetric method relative to untreated control. It counts as cell-based.
Test [13] relates to HT-29. In words: Inhibition of nuclear DNA synthesis in Homo sapiens (human) HT-29 cells assessed as decrease in incorporation of bromo deoxyuridine during S phase of cell cycle at 3.2 uM after 48 hr by colorimetric method relative to untreated control. The test is classed as cell-based.
The subject of test [14] is C6. Briefly: Inhibition of nuclear DNA synthesis in Rattus norvegicus (rat) C6 cells assessed as decrease in incorporation of bromo deoxyuridine during S phase of cell cycle at 3.2 uM after 24 hr by colorimetric method relative to untreated control. The test is classed as cell-based.

Values after ≈ are worked out from the molar mass of the structure shown.

As a reminder, the MIC is the least concentration at which growth counts as inhibited. Regarding `Cc1cc(NC(=O)CSc2ccccc2)no1`, the MIC in test [1] is 400 µg/mL (≈ 1610 µM); in [2], 200 µg/mL (≈ 805 µM); in test [3], 400 µg/mL (≈ 1610 µM); in [4] it was 200 µg/mL (≈ 805 µM); in test [5], 200 µg/mL (≈ 805 µM).
The IC50 is the midpoint of a concentration-inhibition curve. As for `Cc1cc(NC(=O)CSc2nnc(C)s2)no1`, the MIC in [1] was determined as 400 µg/mL (≈ 1480 µM); in test [2], 200 µg/mL (≈ 740 µM); in [3], 400 µg/mL (≈ 1480 µM); in [4] it was 100 µg/mL (≈ 370 µM); in test [5], 200 µg/mL (≈ 740 µM). The IC50 in [6] is 580 nM; in test [7] it was 670 nM.
For the compound `Cc1cc(NC(=O)CSc2nncn2C)no1`, the MIC came out at 400 µg/mL (≈ 1580 µM) in [1]; 200 µg/mL (≈ 790 µM) in test [2]; 400 µg/mL (≈ 1580 µM) in test [3]; 100 µg/mL (≈ 395 µM) in [4]; 100 µg/mL (≈ 395 µM) in [5]. For the same compound, the IC50 in test [6] is 1470 nM; in test [7] it was 1020 nM.
Regarding `Cc1cc(NC(=O)CSc2nnnn2C)no1`, the MIC in [1] is 400 µg/mL (≈ 1570 µM); in test [2] it was 200 µg/mL (≈ 787 µM); in test [3], 400 µg/mL (≈ 1570 µM); in test [4], 100 µg/mL (≈ 393 µM); in [5] it was 100 µg/mL (≈ 393 µM). Besides, the IC50 in [6] was found to be 1210 nM.
On to `CC(=O)N1CCN(c2ccc(OCC3COC(Cn4ccnc4)(c4ccc(Cl)cc4Cl)O3)cc2)CC1` (stereo not given) [KETOCONAZOLE], for which the MIC in test [4] was found to be 100 µg/mL (≈ 188 µM).
As a reminder, the inhibition is how much of the control response was suppressed. For the compound `Cc1cc(NC(=O)CSc2nc3ccccc3s2)no1`, the MIC in [1] is 400 µg/mL (≈ 1310 µM); in test [2], 200 µg/mL (≈ 655 µM); in test [3], 400 µg/mL (≈ 1310 µM); in test [4] it was 200 µg/mL (≈ 655 µM); in test [5] it was 200 µg/mL (≈ 655 µM). Also, the inhibition entry is “Dose-dependent effect” in test [8], “Dose-dependent effect” in test [9], “tde” in test [10] and “tde” in test [11]. Further, the results for the IC50 in test [6] and in test [7] were 210 nM and 400 nM, respectively.
For the compound `Cc1cc(NC(=O)CSc2nc3ccccc3o2)no1`, the inhibition in [12] is 70%; in test [8], “Dose-dependent effect”; in test [9], “Dose-dependent effect”; in test [13], 80%; in [10], “tde”; in [14], over 50%. The inhibition entry in test [11] was “tde”. For the same compound, the MIC in test [1] turned out to be 400 µg/mL (≈ 1380 µM); in test [2] it was 200 µg/mL (≈ 691 µM); in test [3] it was 400 µg/mL (≈ 1380 µM); in [4], 200 µg/mL (≈ 691 µM); in [5], 200 µg/mL (≈ 691 µM). The IC50 in test [6] came to 440 nM; in [7] it was 220 nM.
For the compound `Cc1cc(NC(=O)CSc2nccn2C)no1`, the MIC in [1] is 400 µg/mL (≈ 1590 µM); in test [2] it was 200 µg/mL (≈ 793 µM); in [3] it was 400 µg/mL (≈ 1590 µM); in [4], 100 µg/mL (≈ 396 µM); in test [5], 200 µg/mL (≈ 793 µM). Besides, the IC50 in test [6] was 1410 nM; in test [7], 1130 nM.
Consider `O=C(N[C@H](CO)[C@H](O)c1ccc([N+](=O)[O-])cc1)C(Cl)Cl` [CHLORAMPHENICOL], for which the MIC in [1] was found to be 100 µg/mL (≈ 309 µM); in [2], 50 µg/mL (≈ 155 µM); in test [3] it was 100 µg/mL (≈ 309 µM); in test [5] it was 50 µg/mL (≈ 155 µM).
Turning to `Cc1cc(NC(=O)CSc2nc[nH]n2)no1`, the MIC was determined as 400 µg/mL (≈ 1670 µM) in [1]; 200 µg/mL (≈ 836 µM) in [2]; 400 µg/mL (≈ 1670 µM) in [3]; 100 µg/mL (≈ 418 µM) in test [4]; 100 µg/mL (≈ 418 µM) in [5]. In addition, the IC50 in test [6] was found to be 3190 nM; in [7], 1130 nM.
As to `Cc1cc(NC(=O)CSc2nnnn2-c2ccccc2)no1`, the MIC in test [1] stood at 400 µg/mL (≈ 1260 µM); in [2], 200 µg/mL (≈ 632 µM); in test [3], 400 µg/mL (≈ 1260 µM); in [4], 100 µg/mL (≈ 316 µM); in test [5], 100 µg/mL (≈ 316 µM). The figures for the half-maximal inhibitory concentration (IC50) in test [6] and in test [7] were 640 nM and 740 nM, respectively.
`Cc1cc(NC(=O)CSc2nc3ccccc3[nH]2)no1`: the inhibition in test [12] was 70%; in test [8], “Dose-dependent effect”; in [9], “Dose-dependent effect”; in test [13], 80%; in test [10], “tde”; in test [14], over 50%. In addition, the inhibition result in [11] was “tde”. Besides, the MIC in [1] amounted to 400 µg/mL (≈ 1390 µM); in [2], 200 µg/mL (≈ 694 µM); in test [3], 400 µg/mL (≈ 1390 µM); in test [4], 200 µg/mL (≈ 694 µM); in [5], 200 µg/mL (≈ 694 µM). Also, the figures for the IC50 in test [6] and in test [7] were 100 nM and 90 nM, respectively.
